These results are taken from patent publication US11370771B2, “Inhibitors of TRPC6” (Boehringer Ingelheim International GmbH, priority 2018, dated 2022).

Assay [1] addresses T1, human TRPC6 (Homo sapiens, UniProt Q9Y210).
T1 construct: expressed in transfected cells
T1 sequence (Q9Y210 1-931): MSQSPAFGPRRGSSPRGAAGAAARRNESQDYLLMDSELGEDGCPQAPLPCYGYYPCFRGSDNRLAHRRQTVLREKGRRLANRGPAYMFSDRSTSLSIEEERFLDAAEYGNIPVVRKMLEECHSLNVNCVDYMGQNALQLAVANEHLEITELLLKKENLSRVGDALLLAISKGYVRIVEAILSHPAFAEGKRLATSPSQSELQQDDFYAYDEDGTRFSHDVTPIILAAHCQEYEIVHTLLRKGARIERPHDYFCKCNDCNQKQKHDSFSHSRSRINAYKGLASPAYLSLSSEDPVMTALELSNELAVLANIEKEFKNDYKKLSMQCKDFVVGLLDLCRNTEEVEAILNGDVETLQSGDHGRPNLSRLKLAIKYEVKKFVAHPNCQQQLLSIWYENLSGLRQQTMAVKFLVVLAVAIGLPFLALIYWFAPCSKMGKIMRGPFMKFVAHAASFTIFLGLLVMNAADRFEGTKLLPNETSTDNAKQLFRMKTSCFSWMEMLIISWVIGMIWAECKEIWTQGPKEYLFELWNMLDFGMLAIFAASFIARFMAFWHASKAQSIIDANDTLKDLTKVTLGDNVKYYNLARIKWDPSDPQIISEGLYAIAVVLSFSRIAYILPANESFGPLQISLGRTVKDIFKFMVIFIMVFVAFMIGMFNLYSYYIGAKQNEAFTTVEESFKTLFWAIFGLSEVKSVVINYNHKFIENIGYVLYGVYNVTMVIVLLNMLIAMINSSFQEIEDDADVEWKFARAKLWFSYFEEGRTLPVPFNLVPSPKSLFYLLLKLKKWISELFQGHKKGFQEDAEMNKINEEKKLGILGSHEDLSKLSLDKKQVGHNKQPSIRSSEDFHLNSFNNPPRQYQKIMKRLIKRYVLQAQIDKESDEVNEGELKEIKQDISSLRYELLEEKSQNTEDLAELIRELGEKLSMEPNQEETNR
Nature of the assay: High Throughput Screening Assay Method 1 (FLIPR membrane potential dye, OAG activation, HEK293 cells expressing human TRPC6). Type of assay: cell-based. The following applies: antagonist effect against human TRPC6, 60 μM OAG, read-out: Fluorescence TRPC6 IC50. From the text:
This screening assay measures TRPC6 (transient receptor potential cation channel, subfamily C, member 6) ion channel activation via addition either of the commercially available DAG ligand analogue OAG (1-oleoyl-2-acetyl-sn-glycerol) or of the TRPC6 agonist 1-[1-(4,5,6,7,8-pentahydrocyclohepta[2,1-d]thiophen-2-ylcarbonyl)-4-piperidyl]-3-hydrobenzimidazol-2-one (GSK1702934A). The assay utilizes a FLIPR membrane potential (FMP) dye from Molecular Devices, which is a voltage sensitive indicator with a fluorescent quencher. Changes in membrane potential as measured by the fluorescent signal increase during membrane depolarization provide a measurement of channel activity.
The commercially available HEK293 cell line expressing human TRPC6 channel (Axxam/PerkinElmer) is scaled up in bulk and frozen in liquid nitrogen. Frozen cell stocks are thawed and re-suspended in culture media as recommended by the manufacturer supplemented with 0.5 mg/ml of geneticin to promote retention of the TRPC6 construct. Cells are plated at a density of 15,000 cells/well in Greiner 384 well poly-D-lysine coated black clear bottom plates, and incubated for 18-20 h at 37° C. and 5% CO2. To initiate the assay, the growth media is removed using a plate washer and 25 ul of a FMP dye mix is added to each well. The 4× stock FMP dye from the manufacturer is diluted 1× with assay buffer (low calcium Tyrode's assay buffer: 130 mM NaCl, 5 mM KCl, 0.15 mM CaCl2), 1 mM MgCl2, 5 mM NaHCO3, 20 mM HEPES pH 7.4) containing 36 μM BAPTA/AM. The cells are incubated at room temperature (19-22° C.) for 30 minutes. For the screening assay, 5 uL of diluted compound stock is added to each well and incubated for 15 minutes at room temperature (19-22° C.). Using the Hamamatsu FDSS6000 or FDSS7000, 10 uL of the synthetic, membrane permeant analog of 1,2 diacylglycerol (DAG), 1-oleoyl-2-acetoyl-n-glycerol (OAG), is added and fluorescent readings taken every second from 50 seconds to 3 minutes. […] Controls and blanks consisted of HEK293 TRPC6 cells that are exposed to OAG. A reference inhibitor added along with the test compound is included as part of the blanks. This inhibitor suppresses the TRPC6 channel activation. These controls set the screening window, and “hits” are defined as those compounds inhibiting the membrane depolarization caused by OAG by at least 50%. IC50 values are determined for compounds that meet these criteria by titrating compound stock at a final starting concentration of 30 μM using a 3-fold serial dilution for 11 points. Curves are generated by fitting each data set to a four-parameter logistic equation using nonlinear regression.

Assay [2] relates to PASMC. The following applies: cited from earlier work.
Assay [3] concerns TRPC6. The following applies: lung tissue of IPAH patients; cited from earlier work.

What is called IC50 is the concentration that inhibits the measured activity by half. `N#Cc1ccc(Oc2ccc(C(=O)N3CCN(c4ccc(N)nn4)CC3)cc2)cc1` [Compound 7, 4-{4-[4-(6-aminopyridazin-3-yl)piperazine-1-carbonyl]phenoxy}benzonitrile]: the IC50 in assay [1] came to 4670 nM.
The same measure, in the same setting: the value for `Nc1ccc(N2CCN(C(=O)c3ccc(Oc4ccc5c(c4)OCO5)cc3)CC2)nn1` [Compound 8, 6-{4-[4-(2H-1,3-benzodioxol-5-yloxy)benzoyl]piperazin-1-yl}pyridazin-3-amine] was 1230 nM.
Same read-out and setting: the value for `COc1ccc(Oc2ccc(C(=O)N3CCC(c4ccc(N)nn4)CC3)cc2)cc1` [Compound 9, 6-{1-[4-(4-methoxyphenoxy)benzoyl]piperidin-4-yl}pyridazin-3-amine] was 511 nM; that for `Nc1ccc(C2CCN(C(=O)c3ccc(Oc4ccc(F)cc4)cc3)CC2)nn1` [Compound 10, 6-{1-[4-(4-fluorophenoxy)benzoyl]piperidin-4-yl}pyridazin-3-amine] was 75 nM; that for `Nc1ccc(N2CCN(C(=O)c3ccc(Oc4ccc(Cl)cc4)cc3)CC2)nn1` [Compound 11, 6-{4-[4-(4-chlorophenoxy)benzoyl]piperazin-1-yl}pyridazin-3-amine] was 1040 nM.
As to `Nc1ccc(C2CCN(C(=O)c3ccc(Oc4ccc(C5CC5)cc4)cc3)CC2)nn1` [Compound 12, 6-{1-[4-(4-cyclopropylphenoxy)benzoyl]piperidin-4-yl}pyridazin-3-amine], the IC50 in assay [1] was found to be 400 nM.
`Nc1ccc(C2CCN(C(=O)c3ccc(Oc4ccc(Cl)cc4)cc3)CC2)nn1` [Compound 13, 6-{1-[4-(4-chlorophenoxy)benzoyl]piperidin-4-yl}pyridazin-3-amine]: the IC50 in assay [1] was found to be 266 nM.
On the same count and under the same terms, the result for `CCc1ccc(Oc2ccc(C(=O)N3CCN(c4ccc(N)nc4)CC3)cc2)cc1` [Compound 14, 5-{4-[4-(4-ethylphenoxy)benzoyl]piperazin-1-yl}pyridin-2-amine] reads 324 nM; that for `Nc1ccc(N2CCN(C(=O)c3ccc(Oc4ccccc4)cc3)CC2)cn1` [Compound 15, 5-[4-(4-phenoxybenzoyl)piperazin-1-yl]pyridin-2-amine], 422 nM.
As for `CC(=O)c1ccc(Oc2ccc(C(=O)N3CCC(c4ccc(N)nn4)CC3)cc2)cc1` [Compound 16, 1-(4-{4-[4-(6-aminopyridazin-3-yl)piperidine-1-carbonyl]phenoxy}phenyl)ethan-1-one], in assay [1], the IC50 stood at 2070 nM.
In the case of `CC(C)c1ccc(Oc2ccc(C(=O)N3CCC(c4ccc(N)nn4)CC3)cc2)cc1` [Compound 17, 6-(1-{4-[4-(propan-2-yl)phenoxy]benzoyl}piperidin-4-yl)pyridazin-3-amine], the IC50 in assay [1] is 2190 nM.
For `CC(C)c1ccc(Oc2ccc(C(=O)N3CCN(c4ccc(N)nn4)CC3)cc2)cc1` [Compound 18, 6-(4-{4-[4-(propan-2-yl)phenoxy]benzoyl}piperazin-1-yl)pyridazin-3-amine], in assay [1], the IC50 turned out to be 1310 nM.
Take `Nc1ccc(N2CCN(C(=O)c3ccc(Oc4ccc(C(F)(F)F)cc4)cc3)CC2)cn1` [Compound 19, 5-(4-{4-[4-(trifluoromethyl)phenoxy]benzoyl}piperazin-1-yl)pyridin-2-amine]: in assay [1], the IC50 is 1330 nM.
In the case of `CCc1ccc(Oc2ccc(C(=O)N3CCN(c4ccc(N)nn4)CC3)cc2)cc1` [Compound 20, 6-{4-[4-(4-ethylphenoxy)benzoyl]piperazin-1-yl}pyridazin-3-amine], the IC50 in assay [1] was 1160 nM.
`Nc1ccc(N2CCN(C(=O)c3ccc(Oc4ccc(OC(F)(F)F)cc4)cc3)CC2)nn1` [Compound 21, 6-(4-{4-[4-(trifluoromethoxy)phenoxy]benzoyl}piperazin-1-yl)pyridazin-3-amine]: the IC50 in assay [1] is 191 nM.
As for `Nc1ccc(N2CCN(C(=O)c3ccc(Oc4ccc(C(F)(F)F)c(F)c4)cc3)CC2)nn1` [Compound 22, 6-(4-{4-[3-fluoro-4-(trifluoromethyl)phenoxy]benzoyl}piperazin-1-yl)pyridazin-3-amine], the IC50 in assay [1] stood at 8880 nM.
Take `Nc1ccc(N2CCN(C(=O)c3ccc(Oc4ccccc4)cc3)CC2)nn1` [Compound 24, 6-[4-(4-phenoxybenzoyl)piperazin-1-yl]pyridazin-3-amine]: in assay [1], the IC50 was 199 nM.
Take `CN(C)C(=O)c1ccc(Oc2ccc(C(=O)N3CCN(c4ccc(N)nn4)CC3)cc2)cc1` [Compound 25, 4-{4-[4-(6-aminopyridazin-3-yl)piperazine-1-carbonyl]phenoxy}-N,N-dimethylbenzamide]: the IC50 in assay [1] was determined as 8970 nM.
As for `Nc1ccc(N2CCN(C(=O)c3ccc(Oc4ccc(C(F)(F)F)cc4)cc3)CC2)nn1` [Compound 26, 6-(4-{4-[4-(trifluoromethyl)phenoxy]benzoyl}piperazin-1-yl)pyridazin-3-amine], the IC50 in assay [1] worked out at 3750 nM.
`COc1ccccc1Oc1c(NS(=O)(=O)c2ccc(C(C)(C)C)cc2)nc(-c2ncccn2)nc1OCCO` [bosentan]: the “proliferation of PASMC” value in assay [2] is reported as “decreases proliferation”. Also, in assay [3], the “expression of TRPC6” value is listed as “decreases expression of TRPC6”.
